Measured values: paper PMC4240668 (PLoS ONE, 2014)
“Also recorded” adds a separate entry of the source. Where two headings read alike, the source gives them in different places. No end group written: not given here.

How the values were obtained:
[1] = tested on: differentiated Caco-2 monolayer; assay: Identification of translocated peptides in basal medium of Caco-2 monolayers by MALDI-TOF-MS; details: Caco-2 monolayer incubated apically with 32 µmol/L PF-488 labeled parent peptide, 37°C
Experimental: (§1) Cells were pre-incubated with transport medium (Hank's Balanced Salt Solution (HBSS) with Ca^2+, Mg^2+ and glucose) (Invitrogen) (200 µl in the apical, 900 µl in the basal compartment of the transwell system) for 30 min at 37°C. Methyl-β-cyclodextrin (MβCD; Sigma-Aldrich, Munich, Germany; 2 mmol/L) was added to the apical compartment to inhibit endocytosis. Then, PF–488 labeled GP dissolved in 100 µl transport medium were added on the apical side of the cells at a total concentration of 32 µmol/L or 145 µmol/L. Cells were incubated at 37°C for 3 or 24 h. Thereafter, media from both compartments (apical and basal) were removed to be further analyzed by fluorescence spectroscopy and MALDI–TOF–MS; cell inserts were prepared for flow cytometry and confocal laser scanning microscopy.
(§2) For mass spectrometric analyses peptides were concentrated and desalted using C18 ZipTips (Millipore). MALDI–TOF–MS analysis of the apical and basal cell culture media was performed using a Bruker Ultraflex I instrument (Bruker Daltonics, Bremen, Germany) with 2,5-dihydroxybenzoic acid (DHB)/methylenbisphosphonic acid as matrix. For calibration an external standard peptide mixture (Bruker Daltonics) was used. MS-spectra were processed by the software FlexAnalysis (version 3.0, Bruker Daltonics). The peptide sequences of P56–68 and P31–43 as well as fragments of these peptides were deduced from the detected molecular mass considering the H^+, Na^+ and K^+ adducts. Masses were assigned to peptides allegeable to cleavage of GP. Detected GP were quantified by calculating the relative area under the curve (AUC). The values of three independent experiments are given as mean values.

[2] = tested on: immature dendritic cells (iDC); assay: Cytokine secretion (IL-8, TNF-α) by immature dendritic cells, sandwich ELISA; format: cell-based; details: for Secretion of IL-8 and TNF-α by dendritic cells: iDC from CD14+ PBMCs, 100 µg/mL peptide in RPMI + 2% human serum, 24 h, sandwich ELISA, three experiments (Fig. S1)
Experimental: Supplementary file pone.0113932.s001.tiff: Figure S1 Effect of P31–43 and P56–68 on cytokine secretion (IL-8, TNF-α) by immature dendritic cells (iDC). iDC were generated from CD14+ PBMCs by a 5-day incubation with 500 U/mL IL-4 and 1000 U/mL GM-CSF in RPMI media with 10% human serum. Then, iDC were incubated with 100 µg/mL P31–43 or P56–68 in RPMI+2% human serum for 24 h. IL-8 (A) and TNF-α (B) secretion in the media were analyzed by a commercially available sandwich ELISA (R&D, Wiesbaden, Germany). Each experiment was performed three times; data are given as mean ± SD; only significant differences are shown as *p<0.05, **p<0.01. (TIFF) Click here for additional data file.
Supplementary file pone.0113932.s002.tiff: Figure S2 Effect of the basal media - after incubation of a Caco-2 monolayer with P31–43 and P56–68 - on cytokine secretion (IL-8, TNF-α) by immature dendritic cells (iDC). iDC were generated from CD14+ PBMCs by 5-day incubation with 500 U/mL IL-4 and 1000 U/mL GM-CSF in RPMI media with 10% human serum. iDC were incubated 24 h with basal media of Caco-2 monolayers after they had been exposed to PF-488 labeled P31–43 and P56–68 on the apical side of the cells. IL-8 (A) and TNF-α (B) secretion in the media was analyzed by sandwich ELISA. Each experiment was performed three times; data are given as mean ± SD. (TIFF) Click here for additional data file.

[3] = tested on: Caco-2 cells (brush border membrane peptidases APN, CPP, DPP IV); assay: Digestion of gliadin peptides at the apical side of Caco-2 monolayers, MALDI-TOF-MS relative AUC; details: PF-488 labeled peptide at apical side of Caco-2 monolayer, HBSS, 37°C, mean of three independent experiments
Experimental: as §1, §2

[4] = tested on: Caco-2 cells (brush border membrane peptidases APN, CPP, DPP IV)
Experimental: as §1, §2

[5] = basal medium of differentiated Caco-2 monolayer with MβCD in the apical compartment; details: human, 37°C, up to 24 h
[6] = apical medium (HBSS transport medium) of differentiated Caco-2 monolayer in transwell; details: human, 37°C, up to 24 h
[7] = basal medium of differentiated Caco-2 monolayer (peptide added apically) in transport medium (HBSS); details: human, 37°C; for fragment found: up to 3 h
[8] = apical medium of differentiated Caco-2 monolayer in transport medium (HBSS with Ca2+, Mg2+ and glucose); details: human, 37°C, up to 24 h
[9] = basal medium (HBSS transport medium) of Caco-2 monolayer after apical peptide addition; details: human, 37°C, up to 24 h

| Peptide detected in basal media after 24 h [1] | Substance | Secretion of IL-8 and TNF-α by dendritic cells [2] | fragment found [6] | fragment found [7] | cleaved bond [8] | other results |
| --- | --- | --- | --- | --- | --- | --- |
| detected | LGQQQPFPPQQP [P31–42] |  |  |  |  | Peptide detected in basal media after 3 h ([1]; 3 h): detected |
| found | LQLQPFPQPQLP [P56–67] |  |  |  |  |  |
|  | LGQQQPFPPQQPY [P31–43] | increased secretion |  |  |  | Cytokine production by iDC with basal culture media of peptide-exposed Caco-2 cells ([2]; iDC incubated 24 h with basal media of Caco-2 monolayers exposed apically to PF-488 labeled peptide, ELISA (Fig. S2)): did not significantly increase; Peptide remaining in the apical compartment still intact ([3]; 3 h, MALDI-TOF-MS after C18 ZipTip, relative AUC): 76%; C-terminal tyrosine residue cleaved (presumably by carboxypeptidase P) ([3]; 24 h, MALDI-TOF-MS relative AUC): 83% |
|  | LQLQPFPQPQLPY [P56–68] | no effect |  |  |  | C-terminal tyrosine residue cleaved (presumably by carboxypeptidase P) [4]: 72% |
|  | PF-LQLQPFPQPQLPY |  | QLQPFPQPQLP, minor, 3 h; also recorded: LQPFPQPQLP, minor, 3 h; also recorded: QPFPQPQLP, minor, 3 h | PF-LQ, 3 h | P-Y, major, 3 h; also recorded: L-Q, minor, 3 h; also recorded: Q-L, minor, 3 h; also recorded: P-F, minor, 3 h | fragment found [5]: PF-LQLQPFPQPQ, 24 h; also recorded: PF-LQLQP, 24 h; also recorded: PF-LQL, 24 h; also recorded: PF-L, 24 h; also recorded: PF-LQLQPFPQPQLP, 24 h; cleaved bond ([7]; up to 24 h): P-Y, major, 24 h |
|  | PF-LGQQQPFPPQQPY |  | QQPFPPQQP, minor | PF-LGQQQPFPPQQP, 3 h; also recorded: PF-LGQQQP, 3 h; also recorded: PF-LGQQ, 3 h; also recorded: PF-LGQ, 3 h | P-Y, major, 3 h; also recorded: L-G, 3 h; also recorded: G-Q, 3 h; also recorded: P-F, minor, 3 h | cleaved bond [9]: P-Y, 3 h |
